The values below come from paper PMC6269559, “Design, Synthesis and Biological Evaluation of Ketoprofen Conjugated To RGD/NGR for Targeted Cancer Therapy” (Iranian Journal of Pharmaceutical Research : IJPR, 2018).

Assay type in all cases: cell-based
One assay relates to MCF-7. The experiment in a line: MTT cytotoxicity, MCF-7. Conditions: 48 h; for Inhibitory % values, MCF-7: at 50 µM. As for the experimental part:
(§1) In order to evaluate the cytotoxic activity of the synthesis compounds, five cell lines: A2780 (low αVβ3), OVCAR-3 (high αVβ3), SKOV-3 (low CD13), HT-1080 (high CD13) and MCF-7 and fibroblast cell were selected. A2780 and MCF-7 are both cancer cells, but A2780 is […] cell line. Three concentrations of products were prepared and were evaluated after 48 h by using MTT method. Therefore cells cultured in culture media (RPMI1640) at 37 °C under 5% CO2 supplemented with 10% fetal bovine serum (FBS), 100 U/mL penicillin and 100 μg/mL streptomycin. Nearly 10^4 cells were seeded into 96-well plates and were grown for 24 h in incubator. Compounds and doxorubicin added to wells, cells were incubated at 37 °C for 48 h. Cells without any adding of compound were used as negative control, Doxorubicin was used as positive control and DMSO as the solvent of the test compounds. After 48 h, 10 μL of MTT (5 mg/mL in PBS) was added at 37 °C for 4 h. The medium with MTT was removed and 100 μL DMSO was added to each well, cover the plate from light, shake it for 5 min, then optical densities were read at 570 nm with a reference wavelength of 630 nm as background using a spectrophotometer plate reader (Infinite® M200, TECAN).

The next assay relates to A2780 (low αVβ3). The assay is described as follows: MTT cytotoxicity, A2780. Conditions: 48 h; for Inhibitory % values, A2780: 100 µM. The procedure: as §1
For another assay, the system named is HT-1080 (high CD13). The assay is described as follows: MTT cytotoxicity, HT-1080. The following applies: 48 h; for Inhibitory % values, HT-1080: 100 µM. The procedure: as §1
For another assay, the system named is OVCAR-3 (high αVβ3). The assay is described as follows: MTT cytotoxicity, OVCAR-3. Conditions: 48 h; for Inhibitory % values, OVCAR3: 100 µM. The procedure:
as §1

The next assay has as its system SKOV-3 (low CD13). The experiment in a line: MTT cytotoxicity, SKOV-3. The following applies: 48 h; for Inhibitory % values, SKOV-3: 100 µM. As for the experimental part: as §1
Another assay has as its system Fibroblast. The assay is described as follows: MTT cytotoxicity, fibroblast. Conditions: 100 µM, 48 h. As for the experimental part:
as §1

In the case of Asparagine-Glycine-Arginine [NGR], the “Inhibitory % values, MCF-7” value with MCF-7 is given as “No inhibition”. Also, in the assay on A2780 (low αVβ3), the “Inhibitory % values, A2780” value stood at 6 ± 1.5%. For the same compound, the “Inhibitory % values, HT-1080” value in the assay on HT-1080 (high CD13) is reported as 6.5 ± 0.5%. Also, in the assay with OVCAR-3 (high αVβ3), the “Inhibitory % values, OVCAR3” value is reported as “No inhibition”. For the same compound, the “Inhibitory % values, SKOV-3” value in the assay on SKOV-3 (low CD13) is “No inhibition”. Moreover, the “Inhibitory % values, Fibroblast” value with Fibroblast is “No inhibition”.
On to `COc1cccc2c1C(=O)c1c(O)c3c(c(O)c1C2=O)C[C@@](O)(C(=O)CO)C[C@@H]3O[C@H]1C[C@H](N)[C@H](O)[C@H](C)O1` [Doxorubicin, reference compound], for which the inhibition at 5 µM in the assay on MCF-7 (Homo sapiens, MCF7, at 5 µM (positive control), read-out: Inhibitory % values, MCF-7) is 38 ± 0.53%; with A2780 (low αVβ3) (Homo sapiens, A2780, at 5 µM (positive control), read-out: Inhibitory % values, A2780) it was 65 ± 1.2%; in the assay on HT-1080 (high CD13) (Homo sapiens, HT-1080, at 5 µM (positive control), read-out: Inhibitory % values, HT-1080), 26.7 ± 4.8%; in the assay with OVCAR-3 (high αVβ3) (Homo sapiens, OVCAR-3, at 5 µM (positive control), read-out: Inhibitory % values, OVCAR3) it was 45.2 ± 1.25%; with SKOV-3 (low CD13) (Homo sapiens, SK-OV-3, at 5 µM (positive control), read-out: Inhibitory % values, SKOV-3), 29.5 ± 2.5%.
Regarding `CC(C(=O)O)c1cccc(C(=O)c2ccccc2)c1` (stereo not shown) [Ketoprofen], the “Inhibitory % values, A2780” value in the assay on A2780 (low αVβ3) is “No inhibition”. The inhibition at 100 µM was found to be 9.25 ± 1.3% in the assay on HT-1080 (high CD13) (Homo sapiens, HT-1080, 100 µM, read-out: Inhibitory % values, HT-1080) and 14 ± 4.7% in the assay on SKOV-3 (low CD13) (Homo sapiens, SK-OV-3, 100 µM, read-out: Inhibitory % values, SKOV-3). Further, the “Inhibitory % values, OVCAR3” value with OVCAR-3 (high αVβ3) is listed as “No inhibition”. In addition, the “Inhibitory % values, Fibroblast” value with Fibroblast was “No inhibition”.
Take Arginine-Glycine-Aspartic acid [RGD]: in the assay on MCF-7, the “Inhibitory % values, MCF-7” value is given as “No inhibition”. For the same compound, in the assay on A2780 (low αVβ3), the “Inhibitory % values, A2780” value was 10 ± 2.2%. In the assay with HT-1080 (high CD13), the “Inhibitory % values, HT-1080” value is “No inhibition”. In the assay on OVCAR-3 (high αVβ3), the “Inhibitory % values, OVCAR3” value is given as “No inhibition”. Further, the “Inhibitory % values, SKOV-3” value in the assay with SKOV-3 (low CD13) is on record as 9.5 ± 0.5%. In the assay with Fibroblast, the “Inhibitory % values, Fibroblast” value was “No inhibition”.
